Test results as given in ChEMBL document CHEMBL3885861, “Open TG-GATES”.

Species: Rattus norvegicus
Assay: Open TG-GATES - Regimen: Daily Repeat
Format: toxicity, organism-based, Sprague-Dawley
Set-up: regimen Daily Repeat, gender Male, age 6 weeks
Conditions: in vivo, po, route gavage; for APTT / Bas / Eos / Fbg / Hb / Ht / Lym / MCH / MCHC / MCV / Mono / Neu / RBC / Ret / WBC / Plat / PT: tissue Blood; for KIDNEY_L / KIDNEY_R / KIDNEY_TOTAL: tissue Kidney; for ALP / ALT / AST / BUN / CRE / Ca / Cl / DBIL / GLC / IP / K / LDH / Na / PL / RALB / TBIL / TC / TG / TP / gamma-GTP: tissue Plasma
[1] = 150 mg/kg, 72 h, dose level Middle, time 3 day
[2] = 150 mg/kg, […], dose level Middle, time 7 day
[3] = 150 mg/kg, […], dose level Middle, time 14 day
[4] = 150 mg/kg, […], dose level Middle, time 28 day
[5] = 450 mg/kg, 72 h, dose level High, time 3 day
[6] = 450 mg/kg, […], dose level High, time 7 day
[7] = 450 mg/kg, […], dose level High, time 14 day
[8] = 450 mg/kg, […], dose level High, time 28 day

CC(=O)Oc1ccccc1C(=O)O [ASPIRIN]
APTT [1]: 19 s
Bas [1]: 0%
Eos [1]: 1%
Fbg [1]: 227.8 mg/dL
Hb [1]: 13.4 g/dL
Ht [1]: 39.3%
Lym [1]: 80.8%
MCH [1]: 21.4 pg
MCHC [1]: 34.1%
MCV [1]: 62.7 fL
Mono [1]: 2.8%
Neu [1]: 14.4%
RBC [1]: 627.2 x10_4/ul
Ret [1]: 5.9%
WBC [1]: 108.2 x10_2/uL
KIDNEY_L [1]: 1.1 g
KIDNEY_R [1]: 1.1 g
KIDNEY_TOTAL [1]: 2.1 g
ALP [1]: 924.6 IU/L
ALT [1]: 33.4 IU/L
AST [1]: 68.4 IU/L
BUN [1]: 12.2 mg/dL
CRE [1]: 0.4 mg/dL
Ca [1]: 10.6 mg/dL
Cl [1]: 102.4 meq/L
DBIL [1]: 0.078 mg/dL
GLC [1]: 196.6 mg/dL
IP [1]: 7 mg/dL
K [1]: 3.7 meq/L
LDH [1]: 210.2 IU/L
Na [1]: 141 meq/L
PL [1]: 155.8 mg/dL
RALB [1]: 3.4 g/dL
TBIL [1]: 0.1 mg/dL
TC [1]: 73.8 mg/dL
TG [1]: 117.6 mg/dL
TP [1]: 5.6 g/dL
gamma-GTP [1]: 1 IU/L
TERMINAL_BW [2]: 268.1 g
TERMINAL_BW [3]: 320.9 g
TERMINAL_BW [4]: 404.7 g
APTT [2]: 19.3 s
Bas [2]: 0%
Eos [2]: 1%
Fbg [2]: 216 mg/dL
Hb [2]: 14 g/dL
Ht [2]: 41.1%
Lym [2]: 82.4%
MCH [2]: 20.8 pg
MCHC [2]: 34%
MCV [2]: 61.3 fL
Mono [2]: 2.4%
Neu [2]: 13.2%
Plat [2]: 119 x10_4/uL
RBC [2]: 671 x10_4/ul
Ret [2]: 4.7%
WBC [2]: 119.6 x10_2/uL
APTT [3]: 19.5 s
Bas [3]: 0%
Eos [3]: 1.8%
Fbg [3]: 204.8 mg/dL
Hb [3]: 14.9 g/dL
Ht [3]: 42.1%
Lym [3]: 77.6%
MCH [3]: 21.1 pg
MCHC [3]: 35.3%
MCV [3]: 59.7 fL
Mono [3]: 2.8%
Neu [3]: 17.2%
Plat [3]: 125.3 x10_4/uL
RBC [3]: 704.8 x10_4/ul
Ret [3]: 3.5%
WBC [3]: 156.5 x10_2/uL
APTT [4]: 21.3 s
Bas [4]: 0%
Eos [4]: 1.4%
Fbg [4]: 205.4 mg/dL
Hb [4]: 15.4 g/dL
Ht [4]: 44.6%
Lym [4]: 80.2%
MCH [4]: 19.6 pg
MCHC [4]: 34.6%
MCV [4]: 56.7 fL
Mono [4]: 2.4%
Neu [4]: 14.6%
Plat [4]: 108.6 x10_4/uL
RBC [4]: 789.2 x10_4/ul
Ret [4]: 2.2%
WBC [4]: 108.6 x10_2/uL
KIDNEY_L [2]: 1.2 g
KIDNEY_R [2]: 1.2 g
KIDNEY_TOTAL [2]: 2.3 g
KIDNEY_L [3]: 1.3 g
KIDNEY_R [3]: 1.3 g
KIDNEY_TOTAL [3]: 2.6 g
KIDNEY_L [4]: 1.5 g
KIDNEY_R [4]: 1.5 g
KIDNEY_TOTAL [4]: 3 g
ALP [2]: 901.8 IU/L
ALT [2]: 35 IU/L
AST [2]: 66.8 IU/L
BUN [2]: 16 mg/dL
CRE [2]: 0.4 mg/dL
Ca [2]: 10.4 mg/dL
Cl [2]: 102.4 meq/L
DBIL [2]: 0.094 mg/dL
GLC [2]: 211.6 mg/dL
IP [2]: 8.5 mg/dL
K [2]: 4 meq/L
LDH [2]: 222.2 IU/L
Na [2]: 141 meq/L
PL [2]: 158.4 mg/dL
RALB [2]: 3.2 g/dL
TBIL [2]: 0.1 mg/dL
TC [2]: 71.8 mg/dL
TG [2]: 153.4 mg/dL
TP [2]: 5.4 g/dL
gamma-GTP [2]: 0.6 IU/L
ALP [3]: 825.8 IU/L
ALT [3]: 36.8 IU/L
AST [3]: 77 IU/L
BUN [3]: 14.6 mg/dL
CRE [3]: 0.4 mg/dL
Ca [3]: 10.4 mg/dL
Cl [3]: 102.2 meq/L
DBIL [3]: 0.092 mg/dL
GLC [3]: 187.4 mg/dL
IP [3]: 8 mg/dL
K [3]: 4.2 meq/L
LDH [3]: 252 IU/L
Na [3]: 141.6 meq/L
PL [3]: 158.6 mg/dL
RALB [3]: 3.3 g/dL
TBIL [3]: 0.1 mg/dL
TC [3]: 72.4 mg/dL
TG [3]: 151.4 mg/dL
TP [3]: 5.5 g/dL
gamma-GTP [3]: 0.8 IU/L
ALP [4]: 641.6 IU/L
ALT [4]: 35.8 IU/L
AST [4]: 81.4 IU/L
BUN [4]: 16.2 mg/dL
CRE [4]: 0.5 mg/dL
Ca [4]: 10.2 mg/dL
Cl [4]: 102.8 meq/L
DBIL [4]: 0.1 mg/dL
GLC [4]: 229.2 mg/dL
IP [4]: 7.3 mg/dL
K [4]: 3.8 meq/L
LDH [4]: 193 IU/L
Na [4]: 142.2 meq/L
PL [4]: 149.8 mg/dL
RALB [4]: 3.4 g/dL
TBIL [4]: 0.2 mg/dL
TC [4]: 69.4 mg/dL
TG [4]: 148.8 mg/dL
TP [4]: 5.8 g/dL
gamma-GTP [4]: 0.6 IU/L
TERMINAL_BW [5]: 232.1 g
APTT [5]: 24.9 s
Bas [5]: 0%
Eos [5]: 0.4%
Fbg [5]: 212.4 mg/dL
Hb [5]: 13.5 g/dL
Ht [5]: 39.3%
Lym [5]: 81.4%
MCH [5]: 21.4 pg
MCHC [5]: 34.2%
MCV [5]: 62.5 fL
Mono [5]: 2%
Neu [5]: 14.8%
PT [5]: 14.1 s
Plat [5]: 122.2 x10_4/uL
RBC [5]: 630 x10_4/ul
Ret [5]: 4.7%
WBC [5]: 126.2 x10_2/uL
KIDNEY_L [5]: 1.1 g
KIDNEY_R [5]: 1.1 g
KIDNEY_TOTAL [5]: 2.2 g
ALP [5]: 880.2 IU/L
ALT [5]: 47 IU/L
AST [5]: 82.4 IU/L
BUN [5]: 14.8 mg/dL
CRE [5]: 0.4 mg/dL
Ca [5]: 11.2 mg/dL
Cl [5]: 103 meq/L
DBIL [5]: 0.1 mg/dL
GLC [5]: 188 mg/dL
IP [5]: 7.1 mg/dL
K [5]: 3.7 meq/L
LDH [5]: 233.4 IU/L
Na [5]: 142.2 meq/L
PL [5]: 147.2 mg/dL
RALB [5]: 3.3 g/dL
TBIL [5]: 0.2 mg/dL
TC [5]: 62.2 mg/dL
TG [5]: 187 mg/dL
TP [5]: 5.5 g/dL
gamma-GTP [5]: 1.4 IU/L
TERMINAL_BW [6]: 257.1 g
TERMINAL_BW [7]: 301.6 g
TERMINAL_BW [8]: 356.2 g
APTT [6]: 22.6 s
Bas [6]: 0%
Eos [6]: 0.8%
Fbg [6]: 210.2 mg/dL
Hb [6]: 13.3 g/dL
Ht [6]: 39.6%
Lym [6]: 81.6%
MCH [6]: 21.2 pg
MCHC [6]: 33.7%
MCV [6]: 63 fL
Mono [6]: 2.2%
Neu [6]: 14%
PT [6]: 13.6 s
Plat [6]: 111.3 x10_4/uL
RBC [6]: 629.4 x10_4/ul
Ret [6]: 7.9%
WBC [6]: 159.1 x10_2/uL
APTT [7]: 22.1 s
Bas [7]: 0%
Eos [7]: 1%
Fbg [7]: 210 mg/dL
Hb [7]: 14.5 g/dL
Ht [7]: 41.5%
Lym [7]: 78.6%
MCH [7]: 21.3 pg
MCHC [7]: 34.9%
MCV [7]: 61.1 fL
Mono [7]: 2.6%
Neu [7]: 16.4%
PT [7]: 13 s
Plat [7]: 125.9 x10_4/uL
RBC [7]: 679.8 x10_4/ul
Ret [7]: 4.7%
WBC [7]: 146.8 x10_2/uL
APTT [8]: 23.9 s
Bas [8]: 0%
Eos [8]: 1%
Fbg [8]: 194.2 mg/dL
Hb [8]: 14.9 g/dL
Ht [8]: 43.2%
Lym [8]: 76.6%
MCH [8]: 20.1 pg
MCHC [8]: 34.5%
MCV [8]: 58.2 fL
Mono [8]: 2.6%
Neu [8]: 18.8%
PT [8]: 14 s
Plat [8]: 90.2 x10_4/uL
RBC [8]: 746.6 x10_4/ul
Ret [8]: 3.3%
WBC [8]: 115.2 x10_2/uL
KIDNEY_L [6]: 1.1 g
KIDNEY_R [6]: 1.1 g
KIDNEY_TOTAL [6]: 2.3 g
KIDNEY_L [7]: 1.3 g
KIDNEY_R [7]: 1.3 g
KIDNEY_TOTAL [7]: 2.5 g
KIDNEY_L [8]: 1.3 g
KIDNEY_R [8]: 1.4 g
KIDNEY_TOTAL [8]: 2.7 g
ALP [6]: 1005.2 IU/L
ALT [6]: 51.6 IU/L
AST [6]: 102.4 IU/L
BUN [6]: 16.8 mg/dL
CRE [6]: 0.5 mg/dL
Ca [6]: 11 mg/dL
Cl [6]: 102.4 meq/L
DBIL [6]: 0.1 mg/dL
GLC [6]: 207.4 mg/dL
IP [6]: 7.4 mg/dL
K [6]: 4.1 meq/L
LDH [6]: 248.2 IU/L
Na [6]: 142 meq/L
PL [6]: 158.6 mg/dL
RALB [6]: 3.4 g/dL
TBIL [6]: 0.2 mg/dL
TC [6]: 66.8 mg/dL
TG [6]: 182.4 mg/dL
TP [6]: 5.3 g/dL
gamma-GTP [6]: 1.2 IU/L
ALP [7]: 871 IU/L
ALT [7]: 46.2 IU/L
AST [7]: 92.8 IU/L
BUN [7]: 16.4 mg/dL
CRE [7]: 0.5 mg/dL
Ca [7]: 10.8 mg/dL
Cl [7]: 101.4 meq/L
DBIL [7]: 0.1 mg/dL
GLC [7]: 175.8 mg/dL
IP [7]: 7.6 mg/dL
K [7]: 4.4 meq/L
LDH [7]: 312 IU/L
Na [7]: 141.2 meq/L
PL [7]: 170.6 mg/dL
RALB [7]: 3.3 g/dL
TBIL [7]: 0.2 mg/dL
TC [7]: 65.6 mg/dL
TG [7]: 250.6 mg/dL
TP [7]: 5.4 g/dL
gamma-GTP [7]: 0.8 IU/L
ALP [8]: 771.8 IU/L
ALT [8]: 40.6 IU/L
AST [8]: 85.6 IU/L
BUN [8]: 18.4 mg/dL
CRE [8]: 0.5 mg/dL
Ca [8]: 10.3 mg/dL
Cl [8]: 102.6 meq/L
DBIL [8]: 0.094 mg/dL
GLC [8]: 204.4 mg/dL
IP [8]: 6.5 mg/dL
K [8]: 4 meq/L
LDH [8]: 179 IU/L
Na [8]: 141.8 meq/L
PL [8]: 146.6 mg/dL
RALB [8]: 3.4 g/dL
TBIL [8]: 0.2 mg/dL
TC [8]: 58.2 mg/dL
TG [8]: 172.4 mg/dL
TP [8]: 5.2 g/dL
gamma-GTP [8]: 1 IU/L
